Laboratory results from patent US12491246B2, “Combination therapy of arms and natural killer cells” (KLEO PHARMACEUTICALS, INC., priority 2018, dated 2025).

Tests used:
[1] = tested on: CD56+CD138− CIML NK cells; assay: NK cell fratricide in patient bone marrow co-incubation; type: cell-based, human; conditions: co-incubated with patients bone marrow for 4 hrs; FIG. 4
Method: Patient bone marrow (3 ml) and blood (20 ml) were shipped at ambient temperature from Discovery Biosciences. Bone marrow was diluted 1:1 with PBS, and 50 μl of bone marrow-PBS mixture was aliquoted into 96 deep well plates. Bone marrow cells were incubated overnight until CIML cells were added next day.
PBMC were isolated from blood by Ficoll density gradient centrifugation. PBMC were centrifuged at 400 g for 10 min and re-suspended in EasySep buffer. NK cells were isolated using NK cell isolation kits from STEMCELL Technologies according to kit's manufacturers' instructions.
NK cells were re-suspended at 1×10^6 cells/ml in XVIVO15, 10% Human Serum, IL-15 (50 ng/ml), IL-12 (10 ng/ml), IL-18(50 ng/ml), and incubated for 18 hrs. Following overnight incubation with cytokines, NK cells were washed twice with PBS 5% Human Serum Albumin, counted and re-suspended at a cell density of 2×10^5 cells/ml of XVIVO15 media. Twenty microliters (4000 cells) were added per each well containing 50 μl of bone marrow: PBS mixture. […]
The assay was then incubated for 4 hrs. at 37° C. […] Finally, cells were re-suspended in 200 μl of FACS Buffer and analyzed using Attune Flow Cytometer. Data were analyzed using FlowJo software and graphed using GraphPad Prism. […]

non-CIML NK cells = assay: NK cell fratricide assay, non-CIML control NK cells; type: cell-based; conditions: 2 hr
Method: (§1) PBMC isolation: Leukopheresis product from a donor with body mass index (BMI) between 19-25, under 50 years old, not on immuno-suppressive drugs for at least 2 weeks with an estimated PBMC cell count of >10^10 was obtained from Key Biologics (subject ID 20982200) and transported at ambient temperature. Leukopheresis bag was wiped down with 70% EtOH, a small slit was made and contents were pipetted off into tubes. Leukopak contents were diluted 1:1 with PBS without Ca++/Mg++ and 20 ml of this mixture was layered on top of 25 mL of Ficoll. Tubes were then centrifuged at 400 g for 30 minutes without brakes. PBMCs were harvested from the interface into separate tubes, and tubes were filled to 50 mL with PBS. Cells were centrifuged for 10 min at 120 g to get rid of platelets. Supernatant was poured off and cells were re-suspended in RPMI 10% FBS at a concentration of 7-10×10^6 cells/ml. Cells were cultured overnight at 37C in a 5% CO2 atmosphere until NK cell isolation.
NK cell isolation: PBMC were centrifuged at 400 g for 10 min and re-suspended in EasySep buffer. NK cells were isolated using NK cell isolation kits from STEMCELL Technologies according to kit's manufacturers' instructions. NK cell purity and phenotype was assessed by trypan Blue and flow cytometry using the following antibody cocktail: anti-CD56PE, CD3 APC, and viability was determined using staining with Trypan Blue exclusion dye, and by flow cytometry using Near Infra-Red Fixable viability dye (Thermo Fisher). […]
Purity and viability of NK cells and CIML NK cells: Among other things, the present disclosure provides highly pure and viable NK cell populations following isolation from PBMC. […] After an overnight incubation, purity and viability were assessed in the cultured cell populations. […]
(§2) NK cell fratricide (death directed at NK cells in the same culture) was assessed by flow cytometry following a 2 hr incubation with the CD38 ARM at indicated concentrations in the presence or absence of 500 μg/ml intravenous immune globulin (IVIG). […]

CIML NK cells = assay: CIML NK cell fratricide assay; type: cell-based
Method: as §1
NK cell isolation: PBMC were centrifuged at 400 g for 10 min and re-suspended in EasySep buffer. NK cells were isolated using NK cell isolation kits from STEMCELL Technologies according to kit's manufacturers' instructions. NK cell purity and phenotype was assessed by trypan Blue and flow cytometry using the following antibody cocktail: anti-CD56PE, CD3 APC, and viability was determined using staining with Trypan Blue exclusion dye, and by flow cytometry using Near Infra-Red Fixable viability dye (Thermo Fisher).
CIML NK cell generation: Isolated NK cells were re-suspended at 2×10^6 cells/ml in XVIVO 10% Human Serum and the following concentrations IL-15 (50 ng/ml), IL-12 (10 ng/ml), IL-18(50 ng/ml) for 12 to 18 hrs. […]
as §2

## CCCCC[C@@H]1NC(=O)[C@H](CCCNC(=N)N)NC(=O)[C@H](C)NC(=O)CSC[C@@H](C(=O)NCCOCCOCCOCCOCCOCCOCCn2nnc3c2CCC2C(CC3)C2COC(=O)N2CCC(C(=O)NCC(=O)N[C@H](CCC(=O)N[C@H](CCC(=O)N[C@H](CCC(=O)O)C(=O)N[C@H](CCC(=O)N[C@H](CCC(=O)NCC(=O)NCC(=O)N[C@@H](CC(=O)O)C(=O)N[C@H]3CSSC[C@@H](C(=O)N[C@H](C(=O)O)[C@@H](C)O)NC(=O)[C@H](Cc4c[nH]c5ccccc45)NC(=O)[C@H](C(C)C)NC(=O)[C@H](CC(C)C)NC(=O)[C@H](CCC(=O)O)NC(=O)CNC(=O)[C@H](CC(C)C)NC(=O)[C@H](Cc4c[nH]cn4)NC(=O)[C@H](Cc4c[nH]c5ccccc45)NC(=O)[C@H](C)NC3=O)C(=O)O)C(=O)O)C(=O)O)C(=O)O)CC2)NC(=O)[C@H](CC(=O)O)NC(=O)[C@H](CCCCC)NC(=O)[C@H](Cc2ccc(-c3ccccc3)cc2)NC(=O)[C@H](CC(C)C)NC(=O)[C@H](C(C)C)NC(=O)CNC(=O)[C@H](CC(=O)O)NC(=O)[C@H](Cc2c[nH]cn2)NC(=O)[C@H](Cc2ccc(O)cc2)NC1=O (some centres unmarked) [CD38 ARM]
[1]
  frequencies of CD56+CD138− CIML NK cells (NK cell fratricide): did not change
non-CIML NK cells; 25 uM vs DMSO control
  increase in dead NK cells: 1.7%
non-CIML NK cells; highest concentration with IVIG vs DMSO IVIG control
  increase in dead NK cells: 0.93%
CIML NK cells; CIML NK cells, +/−IVIG, 2 hours post-incubation
  increase in the percentage of dead NK cells: no increase
CIML NK cells; even the highest doses, FIG. 1 (B)
  NK cell fratricide (data normalized to DMSO treated control): no apparent NK cell fratricide was detected
